SMILES strings stand for the structures. pIC50: −log10 of the molar value.

Drawing on patent publication US20240368139A1, “NOVEL MODULATORS OF EHMT1 AND EHMT2 AND THERAPEUTIC USE THEREOF” (Tango Therapeutics, Inc., priority 2021, published 2024), this text covers IC50 for ten compounds.

One assay has as its system H3K9me2 in HCT116 cells. The assay is described as follows: HCT116 H3K9me2 in-cell western assay. It is filed as cell-based. The conditions noted are these: Homo sapiens, HCT-116, 72 h, HCT116 cells, 72 hours incubation; read-out: H3K9me2 ICW IC50. A digest of the protocol:
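HCT116 cells (2,000/well) were treated for 72 h at 37° C, 5% CO2, with ten two-fold dilutions from 10 μM in duplicate. After PFA fixation, cells were stained overnight at 4° C with anti-H3K9me2, then with an 800 CW secondary plus DRAQ5.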

The target in another assay is hERG potassium channels (Homo sapiens, UniProt Q12809). Nature of the assay: In vitro hERG assay (SyncroPatch whole-cell recording). The conditions noted are these: room temperature. (In general: hERG is a cardiac potassium channel; its block is linked to QT prolongation.)
hERG potassium channels, sequence (Q12809 whole entry): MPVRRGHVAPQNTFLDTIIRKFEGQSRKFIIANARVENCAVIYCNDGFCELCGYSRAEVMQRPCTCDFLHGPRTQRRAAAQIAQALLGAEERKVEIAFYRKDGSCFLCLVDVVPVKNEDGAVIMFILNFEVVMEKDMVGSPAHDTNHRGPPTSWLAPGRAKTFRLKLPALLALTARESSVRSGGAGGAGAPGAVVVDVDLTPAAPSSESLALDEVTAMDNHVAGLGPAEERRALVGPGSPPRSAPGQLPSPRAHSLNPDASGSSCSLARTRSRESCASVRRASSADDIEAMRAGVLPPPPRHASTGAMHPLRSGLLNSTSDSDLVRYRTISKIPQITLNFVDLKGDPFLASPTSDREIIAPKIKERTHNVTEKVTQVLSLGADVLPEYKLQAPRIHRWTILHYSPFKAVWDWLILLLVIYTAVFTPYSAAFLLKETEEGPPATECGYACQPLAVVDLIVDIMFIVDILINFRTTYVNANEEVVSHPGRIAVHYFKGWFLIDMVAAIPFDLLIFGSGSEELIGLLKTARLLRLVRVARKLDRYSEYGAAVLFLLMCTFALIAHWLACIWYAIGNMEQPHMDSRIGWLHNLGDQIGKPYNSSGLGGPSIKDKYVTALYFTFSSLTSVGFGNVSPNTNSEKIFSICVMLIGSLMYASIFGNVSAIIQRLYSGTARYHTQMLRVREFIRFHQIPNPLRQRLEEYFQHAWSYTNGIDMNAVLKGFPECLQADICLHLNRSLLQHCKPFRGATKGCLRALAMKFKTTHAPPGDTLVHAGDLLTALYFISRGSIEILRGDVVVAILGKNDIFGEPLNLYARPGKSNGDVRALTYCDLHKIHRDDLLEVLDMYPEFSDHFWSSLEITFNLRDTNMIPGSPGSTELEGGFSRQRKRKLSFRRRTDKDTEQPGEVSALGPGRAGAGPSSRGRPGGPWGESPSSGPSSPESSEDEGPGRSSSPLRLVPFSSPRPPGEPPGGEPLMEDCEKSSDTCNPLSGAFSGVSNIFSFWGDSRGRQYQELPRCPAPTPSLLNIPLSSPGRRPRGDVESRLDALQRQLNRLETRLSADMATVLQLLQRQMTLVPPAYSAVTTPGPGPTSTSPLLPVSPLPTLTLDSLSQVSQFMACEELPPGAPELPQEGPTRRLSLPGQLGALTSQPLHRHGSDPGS
The next assay has as its target T1, human EHMT1 982-1266 (Homo sapiens, UniProt Q9H9B1).
T1 sequence (Q9H9B1 982-1266): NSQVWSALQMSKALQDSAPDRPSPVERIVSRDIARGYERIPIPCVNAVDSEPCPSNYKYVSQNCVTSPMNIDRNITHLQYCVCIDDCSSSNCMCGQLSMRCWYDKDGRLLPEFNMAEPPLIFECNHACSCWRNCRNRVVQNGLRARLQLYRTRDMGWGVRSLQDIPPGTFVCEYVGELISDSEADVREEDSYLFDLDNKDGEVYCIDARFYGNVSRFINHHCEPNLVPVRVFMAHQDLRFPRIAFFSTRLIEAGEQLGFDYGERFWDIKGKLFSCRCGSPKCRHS
The assay is described as follows: EHMT1 enzyme assay on histone peptide substrate (3H-SAM SPA). The conditions noted are these: EHMT1 IC50, recombinant human EHMT1 982-1266, histone peptide substrate.

In a further assay the target is T2, human EHMT2 913-1193 (Homo sapiens, UniProt Q96KQ7).
T2 sequence (Q96KQ7 913-1193): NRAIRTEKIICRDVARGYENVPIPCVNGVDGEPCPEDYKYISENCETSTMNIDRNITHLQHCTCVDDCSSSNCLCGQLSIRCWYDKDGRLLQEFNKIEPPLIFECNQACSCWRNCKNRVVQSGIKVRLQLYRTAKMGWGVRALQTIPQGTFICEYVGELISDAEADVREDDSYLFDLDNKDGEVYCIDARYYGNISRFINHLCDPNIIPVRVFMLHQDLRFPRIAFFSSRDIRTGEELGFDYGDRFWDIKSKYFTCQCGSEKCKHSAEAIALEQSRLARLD
Nature of the assay: EHMT2 enzyme assay on histone peptide substrate (3H-SAM SPA). The conditions noted are these: EHMT2 IC50, recombinant human EHMT2 913-1193, histone peptide substrate.

Setting [1] is: hERG IC50, CHO cells stably expressing hERG.

Experimental for hERG potassium channels: CHO cells stably expressing hERG potassium channels from Sophion Biosciences were used for this test. The cells were cultured in a humidified and air-controlled (5% CO2) incubator at 37° C.
The CHO hERG Culture Medium consisted of 500 mL Ham's F12 (Invitrogen), 50 mL FBS (HyClone), 1 mL G418/Geneticin (Invitrogen, and 1 mL Hygromycin B (Invitrogen)
The CHO cells which were at least two days after plating and more than 75% confluent would be used for experiments. Before testing, cells were harvested using TrypLE and resuspended in the physiological solution at the room temperature.
For the electrophysiological recordings the following solutions were used (Table 5). The physiological solution and external solution were prepared at least one month. The intracellular solution was prepared in batches aliquoted, and stored at 4° C. until used.
Test compounds were dissolved in 100% DMSO to obtain stock solutions for different test concentrations. Then the stock solutions were further diluted into external solution to achieve final concentrations for testing. Visual check for precipitation was conducted before testing. Final DMSO concentration in external solution was not more than 0.30% for the test compounds.
Voltage command protocol: From this holding potential of −80 mV, the voltage was first stepped to −50 mV for 80 ms for leak subtraction, and then stepped to +20 mV for 4800 ms to open hERG channels. After that, the voltage was stepped back down to −50 mV for 5000 ms, causing a “rebound” or tail current, which was measured and collected for data analysis. Finally, the voltage was stepped back to the holding potential (−80 mV, 1000 ms). This voltage command protocol was repeated every 20000 msec. This command protocol was performed continuously during the test (vehicle control and test compound).
hERG SyncroPatch assay was conducted at room temperature. The Setup, Prime Chip, Catch and Seal Cells, Amplifier Settings, Voltage and Application Protocols were established with Biomek Software (Nanion). One addition of 40 μL of the vehicle was applied, followed by 300s for a baseline period. Then the doses of the compounds were added with 40 μL. The exposure of test compound at each concentration was no less than 300s. […] Five concentrations (0.30 μM, 1.00 μM, 3.00 μM, 10.00 μM and 30.00 μM) were tested for each compound. Minimum 2 replicates per concentration were obtained.
Within each well recording, percent of control values were calculated for each test compound concentration current response based on peak current in presence of reference control (current response/peak current)×100%. The Dose-Response curves were fit to the standard Hill equation as shown below:
Where X is the logarithm of concentration, Ipost cpd/Ipre cpa is the normalized peak current amplitude, Top is 1 and Bottom is equal to 0.
Curve-fitting and IC50 calculations were performed by GraphPad Prism 5.0.

The pIC50 is the IC50 on a negative log10 scale, so that one unit is a factor of ten. As for `CNc1cc(C)nc(Nc2cc3c(c(C4=CCNCCC4)c2)OCC3)n1` [Compound 110, N4,6-dimethyl-N2-[7-(2,3,4,7-tetrahydro-1H-azepin-5-yl)-2,3-dihydrobenzofuran-5-yl]pyrimidine-2,4-diamine], the pIC50 with H3K9me2 in HCT116 cells was more than 7.00; at hERG potassium channels (setting [1]) it was less than 5.00; at hERG potassium channels (hERG IC50, SyncroPatch) it was less than 5.00; at human EHMT1 982-1266, more than 7.00; on human EHMT2 913-1193 it was more than 7.00.
Take `CNc1cc(C)nc(Nc2cc3c(c(C4=CCN(C)CCC4)c2)OCC3)n1` [Compound 111, N4,6-dimethyl-N2-[7-(1-methyl-2,3,4,7-tetrahydroazepin-5-yl)-2,3-dihydrobenzofuran-5-yl]pyrimidine-2,4-diamine]: the pIC50 in the assay with H3K9me2 in HCT116 cells is more than 7.00; at hERG potassium channels (setting [1]), less than 5.00; against hERG potassium channels (hERG IC50, SyncroPatch), less than 5.00; at human EHMT1 982-1266, more than 7.00; at human EHMT2 913-1193 it was more than 7.00.
In the case of `CNc1cc(C)nc(Nc2cc3c(c(OCCCN4CCCC4)c2)OCCC3)n1` [Compound 113, N4,6-dimethyl-N2-[8-(3-pyrrolidin-1-ylpropoxy)chroman-6-yl]pyrimidine-2,4-diamine], the pIC50 with H3K9me2 in HCT116 cells was 6.30 to 7.00; against hERG potassium channels (hERG IC50, SyncroPatch) it was more than 5.70; on human EHMT1 982-1266 it was 6.30 to 7.00; on human EHMT2 913-1193 it was 5.70 to 6.30.
With `CNc1cc(C)nc(Nc2cc(OCCCN3CCCC3)c3c(c2)OCO3)n1` [Compound 118, N4,6-dimethyl-N2-[7-(3-pyrrolidin-1-ylpropoxy)-1,3-benzodioxol-5-yl]pyrimidine-2,4-diamine], the pIC50 in the assay on H3K9me2 in HCT116 cells was 6.30 to 7.00; at hERG potassium channels (hERG IC50, SyncroPatch), 5.00 to 5.30; at human EHMT1 982-1266, 6.30 to 7.00; at human EHMT2 913-1193, 5.70 to 6.30.
On to `CNc1cc(C)nc(Nc2cc(OCCCN3CCCC3)c3c(c2)OCCO3)n1` [Compound 122, N4,6-dimethyl-N2-[5-(3-pyrrolidin-1-ylpropoxy)-2,3-dihydro-1,4-benzodioxin-7-yl]pyrimidine-2,4-diamine], for which the pIC50 in the assay with H3K9me2 in HCT116 cells is 6.30 to 7.00; at hERG potassium channels (hERG IC50, SyncroPatch), 5.30 to 5.70; at human EHMT1 982-1266 it was 6.30 to 7.00; on human EHMT2 913-1193 it was 6.30 to 7.00.
Consider `CNc1cc(C)nc(Nc2cc3c(c(C4=CCNCCC4)c2)OCCO3)n1` [Compound 130, N4,6-dimethyl-N2-[5-(2,3,4,7-tetrahydro-1H-azepin-5-yl)-2,3-dihydro-1,4-benzodioxin-7-yl]pyrimidine-2,4-diamine], for which the pIC50 in the assay on H3K9me2 in HCT116 cells is more than 7.00; against hERG potassium channels (hERG IC50, SyncroPatch), 5.30 to 5.70; on human EHMT1 982-1266, more than 7.00; on human EHMT2 913-1193, more than 7.00.
Take `CNc1cc(C)nc(Nc2cc3c(c(C4=CCN(C)CCC4)c2)OCCO3)n1` [Compound 131, N4,6-dimethyl-N2-[5-(1-methyl-2,3,4,7-tetrahydroazepin-5-yl)-2,3-dihydro-1,4-benzodioxin-7-yl]pyrimidine-2,4-diamine]: the pIC50 in the assay with H3K9me2 in HCT116 cells is more than 7.00; at hERG potassium channels (hERG IC50, SyncroPatch), 5.00 to 5.30; on human EHMT1 982-1266, more than 7.00; at human EHMT2 913-1193, 6.30 to 7.00.
Turning to `CNc1cc(C)nc(Nc2cc3c(c(C4=CCNCCC4)c2)OCO3)n1` [Compound 137, N4,6-dimethyl-N2-[7-(2,3,4,7-tetrahydro-1H-azepin-5-yl)-1,3-benzodioxol-5-yl]pyrimidine-2,4-diamine], the negative logarithm of the IC50 (pIC50) was more than 7.00 in the assay with H3K9me2 in HCT116 cells; 5.00 to 5.30 at hERG potassium channels (hERG IC50, SyncroPatch); more than 7.00 on human EHMT1 982-1266; more than 7.00 at human EHMT2 913-1193.
For the compound `CNc1cc(C)nc(Nc2cc3c(c(C4=CCNCCC4)c2)OC(F)(F)O3)n1` [Compound 142, N2-[2,2-difluoro-7-(2,3,4,7-tetrahydro-1H-azepin-5-yl)-1,3-benzodioxol-5-yl]-N4,6-dimethyl-pyrimidine-2,4-diamine], the pIC50 in the assay on H3K9me2 in HCT116 cells is 6.30 to 7.00; on hERG potassium channels (hERG IC50, SyncroPatch), more than 5.70; on human EHMT1 982-1266, more than 7.00; on human EHMT2 913-1193 it was more than 7.00.
On to `CNc1cc(C)nc(Nc2cc3c(c(C4=CCNCCC4)c2)OCCO3)c1` [Compound 144, N4,6-dimethyl-N2-[5-(2,3,4,7-tetrahydro-1H-azepin-5-yl)-2,3-dihydro-1,4-benzodioxin-7-yl]pyridine-2,4-diamine], for which the pIC50 with H3K9me2 in HCT116 cells is 6.30 to 7.00; against hERG potassium channels (hERG IC50, SyncroPatch), less than 5.00; on human EHMT1 982-1266, 6.30 to 7.00; at human EHMT2 913-1193 it was 6.30 to 7.00.
